Measured values from ChEMBL document CHEMBL1159077, “Discovery and SAR of substituted 3-oxoisoindoline-4-carboxamides as potent inhibitors of poly(ADP-ribose) polymerase (PARP) for the treatment of cancer” (Bioorg Med Chem Lett, 2010).

What was measured:
[1] = molecular target: T1, Poly [ADP-ribose] polymerase 1 (Homo sapiens, UniProt P09874); assay: Inhibition of PARP1 in human C41 cells; format: cell-based
[2] = molecular target: T1, Poly [ADP-ribose] polymerase 1; assay: Inhibition of PARP1 by microplate scintillation counting

T1 sequence (P09874 whole entry): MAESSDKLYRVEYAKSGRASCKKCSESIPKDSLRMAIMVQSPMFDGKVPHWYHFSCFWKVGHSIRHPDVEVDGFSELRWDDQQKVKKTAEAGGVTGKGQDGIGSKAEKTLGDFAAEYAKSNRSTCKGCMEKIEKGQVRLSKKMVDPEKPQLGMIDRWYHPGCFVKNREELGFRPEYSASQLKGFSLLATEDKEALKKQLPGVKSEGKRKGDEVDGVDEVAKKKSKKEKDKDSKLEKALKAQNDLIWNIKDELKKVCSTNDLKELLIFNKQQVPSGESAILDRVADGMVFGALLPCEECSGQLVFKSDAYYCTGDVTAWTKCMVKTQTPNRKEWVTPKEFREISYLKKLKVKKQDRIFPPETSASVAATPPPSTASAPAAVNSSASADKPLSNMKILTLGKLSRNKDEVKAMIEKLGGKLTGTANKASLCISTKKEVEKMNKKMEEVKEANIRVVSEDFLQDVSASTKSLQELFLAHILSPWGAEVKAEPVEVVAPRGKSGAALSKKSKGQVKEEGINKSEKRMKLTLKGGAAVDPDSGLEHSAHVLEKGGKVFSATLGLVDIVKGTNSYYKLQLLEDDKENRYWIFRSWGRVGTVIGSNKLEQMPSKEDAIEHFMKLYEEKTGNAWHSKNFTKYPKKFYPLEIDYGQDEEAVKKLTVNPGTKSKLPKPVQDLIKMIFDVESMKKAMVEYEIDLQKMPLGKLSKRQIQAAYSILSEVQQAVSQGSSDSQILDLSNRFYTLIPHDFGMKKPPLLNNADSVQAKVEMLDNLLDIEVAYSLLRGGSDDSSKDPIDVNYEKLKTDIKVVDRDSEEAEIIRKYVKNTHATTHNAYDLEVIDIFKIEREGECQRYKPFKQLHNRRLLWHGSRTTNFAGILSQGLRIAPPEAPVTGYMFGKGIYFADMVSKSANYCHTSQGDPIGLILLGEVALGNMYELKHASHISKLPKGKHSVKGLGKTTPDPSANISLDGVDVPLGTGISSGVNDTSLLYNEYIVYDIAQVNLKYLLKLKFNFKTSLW

Row | Structure (SMILES) | EC50 [1] | Ki [2]
1 | NC(=O)c1cccc2c1C(=O)N(c1ccc(CN3CCCC3)cc1)C2 | 53 nM | 53 nM
2 | NC(=O)c1cccc2c1C(=O)N(c1ccc(C3CCNCC3)cc1)C2 | 120 nM | 32 nM
3 | NC(=O)c1cccc2c1C(=O)N(c1cccc(C3CCNCC3)c1)C2 |  | 314 nM
4 | NC(=O)c1cccc2c1C(=O)N(C1CCCNC1)C2 (stereo unspecified) |  | 140 nM
5 | NC(=O)c1cccc2c1C(=O)N(CC1CCCN1)C2 (stereo unspecified) | 374 nM | 377 nM
6 | NC(=O)c1cccc2c1C(=O)N(Cc1cccnc1)C2 |  | > 9500 nM
7 | CN1CCN(c2ccc(N3Cc4cccc(C(N)=O)c4C3=O)cc2)CC1 | 22 nM | 48 nM
8 | CN(C)c1ccc(N2Cc3cccc(C(N)=O)c3C2=O)cc1 | 372 nM | 70 nM
9 | CC(C)CN1Cc2cccc(C(N)=O)c2C1=O | > 1000 nM | 112 nM
10 | CN1Cc2cccc(C(N)=O)c2C1=O |  | 123 nM
11 | Cc1cccc(N2Cc3cccc(C(N)=O)c3C2=O)c1 |  | 261 nM
12 | NC(=O)c1cccc2c1C(=O)N(C1CCNC1)C2 (stereo unspecified) | 160 nM | 59 nM
13 | NC(=O)c1cccc2c1C(=O)N(CC1CCNCC1)C2 |  | 384 nM
14 | NC(=O)c1cccc2c1C(=O)N(CC1CCCNC1)C2 (stereo unspecified) |  | 164 nM
15 | NC(=O)c1cccc2c1C(=O)N(c1cccc(CN3CCCC3)c1)C2 |  | 391 nM
16 | NC(=O)c1cccc2c1C(=O)N(C1CCCCC1)C2 | > 1000 nM | 172 nM
17 | NC(=O)c1cccc2c1C(=O)N(C1CCNCC1)C2 | 51 nM | 33 nM
